Data from patent publication US10309967B2, “Methods of diagnosing bipolar disorders and screening for therapeutic compounds” (National University Corporation Chiba University, priority 2015, dated 2019).
Entries after “also recorded” stand apart in the source; their conditions may differ.

Tested on: CSF samples from rats
Assay: Metabolomics (CE-TOFMS) of CSF samples from rats chronically treated with Li or VPA
Assay type: in vivo, rat
Details: chronic (4-weeks) treatment via drinking water
Procedure: Data from human samples are presented as mean±standard deviation (SD). Statistical analysis was performed using SAS software version 9.3 (SAS Institute, Cary, N.C.). Analyses of metabolites between control and BD groups were performed using unpaired t-tests and Wilcoxon rank sum tests. A logistic regression model with a stepwise selection method was used for the multivariate analysis and multiple regression analysis (consistent with description in Allen et al., Technometrics. 1974; 16(1):125-127; and Miller et al., Chapman and Hall. 1974, which are incorporated in their entireties by reference herein). […] The Mann-Whitney U test (two-tailed) was used to evaluate changes in expression levels of the ACO and IDH genes between control and BD groups. Rat data are presented as mean±SD. To determine the effects of drug treatment, a one-way ANOVA, followed by the post hoc Dunnett's test was used. P values of less than 0.05 for two-tailed tests were considered statistically significant.
The volume (50 μL) of CSF sample was added to 450 μL it methanol containing internal standards, and mixed. Then, 450 μL chloroform and 200 μL Milli-Q water was added to the mixture. After mixture, the mixture was centrifuged at 2,300×g and 4° C. for 5 min. Subsequently, 800 μL of upper aqueous layer was centrifugally filtered through a Millipore 5-kDa cutoff filter at 9,100×g and 4° C. for 120 min to remove proteins. The filtrate was centrifugally concentrated and re-suspended in 25 μL of Milli-Q water for analysis.
Cationic compounds were measured in the positive mode of CE-TOFMS (Agilent CE-TOFMS system Machine No. 3, Fused silica capillary, i.d. 50 μM×80 cm), and anionic compounds were measured in the positive and negative modes of CE-MS/MS (Agilent CE system and Agilent 6400 TripleQuad LC/MS Machine No. QqQ01, Fused silica capillary, i.d. 50 μM×80 cm), as reported previously (Soga et al., Anal. Chem. 2000; 72(6):1236-1241; Soga et al., Anal Chem. 2002; 74(10):2233-2239; Soga et al., J. Proteome Res. 2003; 2(5):488-494, which are incorporated in their entireties by reference herein). Peaks detected by CE-TOFMS and CE-MS/MS were extracted using automatic integration software (MasterHands, Keio University, Tsuruoka, Japan) (Sugimoto et al., Metabolomics. 2009; 6(1):78-95, which is incorporated in its entirety by reference herein) and MassHunter Quantitative Analysis B.04.00, Agilent Technologies, Santa Clara, Calif., USA) in order to obtain peak information including m/z, migration time (MT), and peak area. The peaks were annotated with putative metabolites from the HMT metabolite database based on their MTs in CE and m/z values determined by TOFMS. The tolerance range for the peak annotation was configured at ±0.5 min for MT and ±10 ppm for m/z. In addition, concentrations of metabolites were calculated by normalizing the peak area of each metabolite with respect to the area of the internal standard and by using standard curves, which were obtained by three-point calibrations.
The CSF concentrations of 116 major metabolites from several pathways were measured. […] Male Sprague-Dawley rats (Japan SLC Inc., Shizuoka, Japan) aged 6 weeks old were used in this study. All rats were housed in groups of three per cage in a room maintained at 23° C.±2° C. and 60±10% humidity with a 12/12 hour light/dark cycle (lights on at 7:00 a.m.). The rats were given free access to food and water. Animal care and use were conducted in accordance with the Institutional Guidelines for Animal Care and Use of Otsuka Pharmaceutical Co., Ltd. (Tokushima, Japan). […] The drinking water was replaced twice a week. […] All animals were decapitated on day 30 after CSF sampling, and brain regions (prefrontal cortex, and hippocampus) were dissected rapidly on ice. Metabolomic analyses of rat CSF samples were performed as described herein.

Q: `CCCC(CCC)C(=O)[O-].[Na+]` [VPA, valproic acid sodium salt] was tested. Which “2-Oxoisovaleric acid Mean” value (rat CSF) did it give?
A: 4.3 µM

Q: What about the “3-Phosphoglyceric acid Mean” value (rat CSF) of the same molecule?
A: 0.3 µM

Q: And the “ADP-ribose Mean” value (rat CSF)?
A: 0.01 µM

Q: And the “Adenosine Mean” value (rat CSF)?
A: 0.2 µM

Q: What about the “Alanin (Ala) Mean” value (rat CSF) of the same molecule?
A: 50 µM

Q: And the “Arginine (Arg) Mean” value (rat CSF)?
A: 27 µM

Q: And the “Argininosuccinic acid Mean” value (rat CSF)?
A: 0.7 µM

Q: And the “Asparagic acid (Asp) Mean” value (rat CSF)?
A: 1.6 µM

Q: And the “Asparagine (Asn) Mean” value (rat CSF)?
A: 4.0 µM

Q: And the “Carnosine Mean” value (rat CSF)?
A: 0.5 µM

Q: And the “Choline Mean” value (rat CSF)?
A: 7.8 µM

Q: And the “Citric acid Mean” value (rat CSF)?
A: 44 µM

Q: And the “Citrulline Mean” value (rat CSF)?
A: 3.6 µM

Q: What about the “Creatine Mean” value (rat CSF) of the same molecule?
A: 56 µM

Q: And the “Creatinine Mean” value (rat CSF)?
A: 6.2 µM

Q: And the “Dihydroxyacetone phosphate Mean” value (rat CSF)?
A: 0.8 µM

Q: And the “Fructose 6-phosphate Mean” value (rat CSF)?
A: 0.2 µM

Q: And the “Glucose 6-phosphate Mean” value (rat CSF)?
A: 0.5 µM

Q: And the “Glutamic acid (Glu) Mean” value (rat CSF)?
A: 1.6 µM

Q: And the “Glutamine (Gln) Mean” value (rat CSF)?
A: 598 µM

Q: What about the “Glutathione (GSSG) Mean” value (rat CSF) of the same molecule?
A: 0.9 µM

Q: And the “Glyceraldehyde 3-phosphate Mean” value (rat CSF)?
A: 1.1 µM

Q: What about the “Glycerol 3-phosphate Mean” value (rat CSF) of the same molecule?
A: 7.0 µM

Q: And the “Glycine (Gly) Mean” value (rat CSF)?
A: 6.5 µM

Q: And the “Histidine (His) Mean” value (rat CSF)?
A: 7.1 µM

Q: What about the “Homoserine Mean” value (rat CSF) of the same molecule?
A: 0.09 µM

Q: What about the “Hydroxyproline Mean” value (rat CSF) of the same molecule?
A: 1.1 µM

Q: What about the “Hypoxanthine Mean” value (rat CSF) of the same molecule?
A: 1.4 µM

Q: What about the “Inosine monophosphate (IMP) Mean” value (rat CSF) of the same molecule?
A: 0.1 µM

Q: And the “Isocitric acid Mean” value (rat CSF)?
A: 1.6 µM

Q: And the “Isoleucine (Ile) Mean” value (rat CSF)?
A: 1.2 µM

Q: What about the “Lactic acid Mean” value (rat CSF) of the same molecule?
A: 2,361 μM

Q: What about the “Leucine (Leu) Mean” value (rat CSF) of the same molecule?
A: 4.5 µM

Q: And the “Lysine (Lys) Mean” value (rat CSF)?
A: 85 µM

Q: What about the “Malic acid Mean” value (rat CSF) of the same molecule?
A: 0.7 µM

Q: What about the “Methionine (Met) Mean” value (rat CSF) of the same molecule?
A: 3.3 µM

Q: And the “N-Carbamoylaspartic acid Mean” value (rat CSF)?
A: 0.02 µM

Q: And the “Nicotinamide Adenine dinucleotide (NAD^+) Mean” value (rat CSF)?
A: 0.8 µM

Q: And the “Nicotinamide Adenine dinucleotide phophate (NADP^+) Mean” value (rat CSF)?
A: 0.09 µM

Q: What about the “Ornithine Mean” value (rat CSF) of the same molecule?
A: 2.2 µM

Q: And the “Phenylalanine (Phe) Mean” value (rat CSF)?
A: 2.9 µM

Q: What about the “Phosphocreatine Mean” value (rat CSF) of the same molecule?
A: 6.8 µM

Q: What about the “Phosphoenolpyruvic acid Mean” value (rat CSF) of the same molecule?
A: 0.15 µM

Q: What about the “Pyruvic acid Mean” value (rat CSF) of the same molecule?
A: 21 µM

Q: And the “Ribose 5-phosphate Mean” value (rat CSF)?
A: 0.06 µM

Q: And the “Ribulose 5-phosphate Mean” value (rat CSF)?
A: 0.08 µM

Q: And the “S-Adenosylmethionine Mean” value (rat CSF)?
A: 0.5 µM

Q: What about the “Serine (Ser) Mean” value (rat CSF) of the same molecule?
A: 83 µM

Q: What about the “Succinic acid Mean” value (rat CSF) of the same molecule?
A: 7.4 µM

Q: What about the “Threonine (Thr) Mean” value (rat CSF) of the same molecule?
A: 41 µM

Q: And the “Tryptophan (Trp) Mean” value (rat CSF)?
A: 1.0 µM

Q: What about the “Tyrosine (Tyr) Mean” value (rat CSF) of the same molecule?
A: 5.2 µM

Q: And the “UDP-glucose Mean” value (rat CSF)?
A: 0.3 µM

Q: And the “Urea Mean” value (rat CSF)?
A: 3,714 μM

Q: What about the “Uric acid Mean” value (rat CSF) of the same molecule?
A: 1.8 µM

Q: What about the “Valine (Val) Mean” value (rat CSF) of the same molecule?
A: 2.1 µM

Q: And the “Xanthine Mean” value (rat CSF)?
A: 1.5 µM

Q: What about the “cyclic AMP (cAMP) Mean” value (rat CSF) of the same molecule?
A: 0.006 µM

Q: And the “cyclic GMP (cGMP) Mean” value (rat CSF)?
A: 0.003 µM

Q: And the “CSF levels of arginine” value (rats, vs control)?
A: significantly altered

Q: And the “CSF levels of argininosuccinic acid” value (rats, vs control)?
A: significantly altered

Q: What about the “CSF levels of glutamine” value (rats, vs control) of the same molecule?
A: significantly altered

Q: And the “CSF levels of threonine” value (rats, vs control)?
A: significantly altered

Q: What about the “CSF levels of tryptophan” value (rats, vs control) of the same molecule?
A: significantly altered

Q: What about the “CSF levels of isocitrate” value (rats, vs control, sodium salt) of the same molecule?
A: not altered; also recorded: did not alter

Q: What does the source list for `O=C([O-])[O-].[Li+].[Li+]` [Li, lithium carbonate]?
A: 2-Oxoisovaleric acid Mean (rat CSF): 4.3 µM; 3-Phosphoglyceric acid Mean (rat CSF): 0.3 µM; ADP-ribose Mean (rat CSF): 0.010 µM; Adenosine Mean (rat CSF): 0.2 µM; Alanin (Ala) Mean (rat CSF): 54 µM; Arginine (Arg) Mean (rat CSF): 31 µM; Argininosuccinic acid Mean (rat CSF): 1.0 µM; Asparagic acid (Asp) Mean (rat CSF): 1.8 µM; Asparagine (Asn) Mean (rat CSF): 4.8 µM; Carnosine Mean (rat CSF): 0.5 µM; Choline Mean (rat CSF): 7.5 µM; Citric acid Mean (rat CSF): 57 µM; Citrulline Mean (rat CSF): 3.8 µM; Creatine Mean (rat CSF): 60 µM; Creatinine Mean (rat CSF): 6.0 µM; Dihydroxyacetone phosphate Mean (rat CSF): 0.6 µM; Fructose 6-phosphate Mean (rat CSF): 0.2 µM; Glucose 6-phosphate Mean (rat CSF): 0.5 µM; Glutamic acid (Glu) Mean (rat CSF): 2.0 µM; Glutamine (Gln) Mean (rat CSF): 534 µM; Glutathione (GSSG) Mean (rat CSF): 1.1 µM; Glyceraldehyde 3-phosphate Mean (rat CSF): 0.9 µM; Glycerol 3-phosphate Mean (rat CSF): 7.2 µM; Glycine (Gly) Mean (rat CSF): 5.5 µM; Histidine (His) Mean (rat CSF): 7.1 µM; Homoserine Mean (rat CSF): 0.10 µM; Hydroxyproline Mean (rat CSF): 1.1 µM; Hypoxanthine Mean (rat CSF): 1.2 µM; Inosine monophosphate (IMP) Mean (rat CSF): 0.10 µM; Isocitric acid Mean (rat CSF): 2.0 µM; Isoleucine (Ile) Mean (rat CSF): 1.5 µM; Lactic acid Mean (rat CSF): 2,438 μM; Leucine (Leu) Mean (rat CSF): 5.1 µM; Lysine (Lys) Mean (rat CSF): 71 µM; Malic acid Mean (rat CSF): 2.2 µM; Methionine (Met) Mean (rat CSF): 4.4 µM; Mevalonic acid Mean (rat CSF): 0.003 µM; N-Carbamoylaspartic acid Mean (rat CSF): 0.04 µM; Nicotinamide Adenine dinucleotide (NAD^+) Mean (rat CSF): 0.8 µM; Nicotinamide Adenine dinucleotide phophate (NADP^+) Mean (rat CSF): 0.09 µM; Ornithine Mean (rat CSF): 2.3 µM; Phenylalanine (Phe) Mean (rat CSF): 3.1 µM; Phosphocreatine Mean (rat CSF): 6.9 µM; Phosphoenolpyruvic acid Mean (rat CSF): 0.2 µM; Pyruvic acid Mean (rat CSF): 29 µM; Ribose 5-phosphate Mean (rat CSF): 0.07 µM; Ribulose 5-phosphate Mean (rat CSF): 0.10 µM; S-Adenosylmethionine Mean (rat CSF): 0.5 µM; Serine (Ser) Mean (rat CSF): 82 µM; Succinic acid Mean (rat CSF): 9.0 µM; Threonine (Thr) Mean (rat CSF): 54 µM; Tryptophan (Trp) Mean (rat CSF): 1.2 µM; Tyrosine (Tyr) Mean (rat CSF): 5.4 µM; UDP-glucose Mean (rat CSF): 0.3 µM; Urea Mean (rat CSF): 4,332 μM; Uric acid Mean (rat CSF): 1.8 µM; Valine (Val) Mean (rat CSF): 2.3 µM; Xanthine Mean (rat CSF): 1.6 µM; cyclic AMP (cAMP) Mean (rat CSF): 0.007 µM; cyclic GMP (cGMP) Mean (rat CSF): 0.003 µM; CSF levels of argininosuccinic acid (rats, vs control): significantly increased; CSF levels of isocitrate (rats, vs control): not altered; also recorded: did not alter; CSF levels of succinic acid (rats, vs control): significantly increased
